According to BindingDB's records for doi:10.1016/j.bmcl.2009.01.090 (Gsk, 2009):

Molecular target: T1, Gag-Pol polyprotein [1148-1435] (Human immunodeficiency virus 1, UniProt P04585)
T1 construct: 1148-1435
Assay: HIV Integrase Strand Transfer Scintillation Proximity Assay (SPA)
Conditions: pH 7.2; 37 °C
Procedure: Purified recombinant integrase was first combined in a complex with biotinylated donor DNA- streptavidin-coated SPA beads. The complex was preincubated with the test compound, and strand transfer was initiated with a radiolabeled target DNA substrate. After incubation, the incorporated radioactivity was read in a Wallac MicroBeta scintillation plate reader using a counting protocol that corrected for optical cross talk between wells.

| Compound | IC50 [µM] |
| --- | --- |
| O=S1(=O)CCCCN1c1nc(-c2noc(Cc3ccc(F)cc3)n2)c(O)c2ncccc12 [2-(7-{5-[(4-fluorophenyl)methyl]-1,2,4-oxadiazol-3-yl}-8-hydroxy-1,6-naphthyridin-5-yl)-1,2-thiazinane-1,1-dione] | > 100 |
| O=C(NCc1ccc(F)cc1)c1nc(N2CCCCS2(=O)=O)c2cccnc2c1O [5-(1,1-dioxo-1,2-thiazinan-2-yl)-N-[(4-fluorophenyl)methyl]-8-hydroxy-1,6-naphthyridine-7-carboxamide] | 0.013 |
| Oc1c(-c2noc(-c3ccccc3)n2)ncc2cccnc12 [7-(5-phenyl-1,2,4-oxadiazol-3-yl)-1,6-naphthyridin-8-ol] | > 100 |
| Cn1nc(Cc2ccc(F)cc2)nc1-c1ncc2cccnc2c1O [7-{3-[(4-fluorophenyl)methyl]-1-methyl-1H-1,2,4-triazol-5-yl}-1,6-naphthyridin-8-ol] | > 500 |
